US20120277269A1 (priority 2008, published 2012)
Like-named read-outs stand apart in the source and are kept apart here.

Experiments:
[1] = system: patients with atrial fibrillation at risk of stroke
From the text: Median follow-up was 2.0 years and the primary outcome was stroke or systemic embolism.
Patients were recruited from 951 clinical centers in 44 countries. In brief, patients were eligible if they had atrial fibrillation documented on electrocardiogram at screening or within 6 months; and at least one of the following: prior stroke or transient ischemic attack; left ventricular ejection fraction less than 40%; New York Heart Association heart failure symptoms of Class 2 or greater within 6 months; age at least 75 years; or age at least 65 years with diabetes mellitus, hypertension or coronary artery disease.
The time in therapeutic range was calculated by the method of Rosendaal (Rosendaal F R, et al., A method to determine the optimal intensity of oral anticoagulant therapy, Thromb Haemost, 1993, 69:236-239), excluding INRs from the first week and after discontinuations. […] Concomitant use of aspirin (less than 100 mg/day) or other antiplatelet agents was allowed.
Liver function testing was performed monthly during the first year of follow-up.
The primary study outcome was stroke or systemic embolism. The primary safety outcome was major hemorrhage. Secondary outcomes were stroke, systemic embolism and death. Other outcomes were myocardial infarction, pulmonary embolism, transient ischemic attacks, and hospitalizations. The primary net benefit-risk outcome was the composite of stroke, systemic embolism, pulmonary embolism, myocardial infarction, death or major hemorrhage. Stroke was defined as sudden onset of focal neurological deficit consistent with the territory of a major cerebral artery and categorized as ischemic, hemorrhagic or unspecified. Hemorrhagic transformation of ischemic stroke was not considered as hemorrhagic stroke. Intracranial hemorrhage included hemorrhagic stroke and sub-dural or sub-arachnoid hemorrhage. Systemic embolism was an acute vascular occlusion of an extremity or organ documented by imaging, surgery or autopsy. Major bleeding was defined as a reduction in hemoglobin level of at least […] or transfusion of at least 2 units of blood or symptomatic bleeding in a critical area or organ. Life-threatening bleeding was a subset of major bleeding that included fatal bleeding, symptomatic intracranial bleeding, bleeding with hemoglobin decrease of more than […] or requiring transfusion of more than 4 units of blood or requiring inotropic agents or necessitating surgery. All other bleeding was considered minor.
All primary and secondary outcome events were blindly and doubly adjudicated. An international team of adjudicators reviewed documents in local languages after blinding; or documents were translated by a independent group and blinded centrally. All transient ischemic attacks were reviewed to ensure that strokes had not been missed. To detect possible unreported events, symptom questionnaires were regularly administered to patients, and adverse events and hospitalization reports were scrutinized for unreported primary or secondary outcomes.
If maximum of the two p-values was greater than 0.025, the minimum of the two p-values must be less than 0.0125, one-sided, to claim statistical significance. All analyses were based on intention-to-treat.

AF patients [2] = conditions: SPORTIF V; Warfarin vs. Ximelagatran; mean follow-up 1.66 years; cited from earlier work
AF patients [3] = conditions: BAFTA; mean follow-up 2.7 years; cited from earlier work
AF patients [4] = conditions: ACTIVE W; mean follow-up 1.3 years; cited from earlier work
AF patients [5] = conditions: SPORTIF III; Warfarin vs. Ximelagatran; mean follow-up 1.45 years; cited from earlier work

With CC(=O)CC(c1ccccc1)c1c(O)c2ccccc2oc1=O (racemic) [Warfarin, 3-(α-acetonylbenzyl)-4-hydroxycoumarin] the “ALT or AST > 3xULN with concurrent bilirubin > 2xULN” value ([1]; Warfarin) was “(0.4) %”, the “Adverse Event: Arthralgia” value ([1]; Warfarin) was “(5.5) %” and the “Adverse Event: Atrial fibrillation” value ([1]; Warfarin) was “(5.4) %”. The “Adverse Event: Back pain” value ([1]; Warfarin) was “(5.5) %”, the “Adverse Event: Chest pain” value ([1]; Warfarin) was “(5.7) %” and the “Adverse Event: Cough” value ([1]; Warfarin) was “(5.8) %”. For the same molecule, the “Adverse Event: Diarrhea” value ([1]; Warfarin) was “(5.5) %”, the “Adverse Event: Dizziness” value ([1]; Warfarin) was “(9.3) %” and the “Adverse Event: Dyspepsia” value ([1]; Warfarin) was “(1.4) %”. The “Adverse Event: Dyspnoea” value ([1]; Warfarin) was “(9.2) %”, the “Adverse Event: Fatigue” value ([1]; Warfarin) was “(5.9) %” and the “Adverse Event: Nasopharyngitis” value ([1]; Warfarin) was “(5.5) %”. The “Adverse Event: Peripheral edema” value ([1]; Warfarin) was “(7.6) %”, the “Adverse Event: Upper respiratory tract infection” value ([1]; Warfarin) was “(5.0) %” and the “Adverse Event: Urinary tract infection” value ([1]; Warfarin) was “(5.3) %”. The “Life threatening major bleeding, Rate” value ([1]; Warfarin) was 1.80 /100 Person Years, the “Liver Function Test Abnormalities: ALT or AST > 3xULN” value ([1]; Warfarin) was “(2.1) %” and the “Pulmonary embolism, Rate” value ([1]; Warfarin) was 0.09 /100 Person Years. For the same molecule, the “Reason for discontinuation: Gastrointestinal bleeding” value ([1]; Warfarin) was “(0.9) %”, the “Reason for discontinuation: Gastrointestinal disorders (including pain, vomiting and diarrhea)” value ([1]; Warfarin) was “(0.8) %” and the “Reason for discontinuation: SAE” value ([1]; Warfarin) was “(1.6) %”. For the same molecule, the “hepatobiliary disorders (AE)” value ([1]; Warfarin) was “(2.2) %”, the “hepatobiliary disorders (SAE)” value ([1]; Warfarin) was “(0.4) %” and the “Rate of primary outcome, stroke or systemic embolism” value ([1]; warfarin, median follow-up 2.0 years) was 1.70 % per year. For the same molecule, the “Myocardial Infarction” value (AF patients [2]) was 1.4% (warfarin), the “Myocardial Infarction” value (AF patients [3]) was 1.1% (warfarin) and the “Myocardial Infarction” value (AF patients [4]) was 0.6% (warfarin). The “Myocardial Infarction” value (AF patients [5]) was 0.6% (warfarin).
